Values of other authors as cited in patent US6696551B1, “225Ac-HEHA and related compounds, methods of synthesis and methods of use” (The United States of America as represented by the …, priority 1999, dated 2004).

O=C(O)CN(CC(=O)O)[C@H](Cc1ccc([N+](=O)[O-])cc1)CN(CC(=O)O)[C@H]1CCCC[C@@H]1N(CC(=O)O)CC(=O)O (relative stereo) [CHXA″-DTPA, N[(R)-2-amino-3-(4-nitrophenyl)propyl]-trans-(S,S)-cyclohexane-1,2-diamine-N,N,N′,N″,N″-pentaacetic acid]
maximum tolerated dose (MTD) (^225Ac chelate, mice): approximately 100 kBq
mouse mortality (higher doses, within eight days): 100%
